Tests used:
[1] = test system: palbociclib-resistant breast cancer cells (CTG-1207); assay: Palbociclib-resistant breast cancer PDX model (CTG-1207); type: in vivo, mice; settings: Compound (A) 80 mg/kg, palbociclib 50 mg/kg, alone or in combination; FIG. 10A
Experimental: The antitumor activity of Compound (A) in combination with palbociclib was further evaluated in a palbociclib-resistant breast cancer PDX model (CTG-1207). Mice were inoculated subcutaneously with palbociclib-resistant breast cancer cells in DMEM Matrigel mixture (1:1 ratio) without serum for tumor development. Once tumor size reached approximately 200 mm^3, mice were randomized into 4 groups (8 mice per group) and treated with vehicle control, 80 mg/kg Compound (A) alone, 50 mg/kg Palbociclib alone, or Compound (A) at 80 mg/kg in combination with 50 mg/kg palbociclib. Study endpoints included daily body weight, clinical observations, tumor volume.

MCF-7 tumor cells [2] = assay: Antitumor activity of Compound (A) as single agent in MCF-7 xenograft model; type: in vivo, mouse
Experimental: The antitumor activity of Compound (A) was assessed using the MCF-7 xenograft model. Each mouse was inoculated subcutaneously on the 2nd right mammary fat pad with 1.5×10^7 MCF-7 tumor cells in 200 μL DMEM Matrigel mixture (1:1 ratio) without serum for the tumor development. In addition, estradiol benzoate injection was delivered by s.c. (40 ug/20 uL, twice weekly). When mean tumor size reached 204 mm^3, animals were randomized into 2 groups (10 animals/group) and the treatments were initiated. Compound (A) or vehicle control was administered once daily by oral gavage and continued for 28-days. Study endpoints included daily body weight, clinical observations, tumor volume. […] In FIG. 3, the top line is vehicle, and the bottom line is Compound (A) (80 mg/kg qd×22 p.o).

MCF-7 cells = assay: Compound (A) in combination with palbociclib at a lower dose in MCF-7 xenograft model; type: in vivo, mouse; settings: Compound (A) 60 mg/kg, palbociclib 25 mg/kg, alone or in combination; FIG. 7
Experimental: The antitumor activity of Compound (A) in combination with a CDK4/6 inhibitor, palbociclib at a lower dose was evaluated in the MCF-7 xenograft model. Each mouse was inoculated subcutaneously on the 2nd right mammary fat pad with 1.5×10^7 MCF-7 cells in 200 μL DMEM Matrigel mixture (1:1 ratio) without serum for the tumor development. In addition, estradiol benzoate injection was delivered by s.c. (40 ug/20 uL, twice weekly). The treatments were started when mean tumor size reached 203 mm^3. Mice were randomized into 4 groups (8 mice per group) and treated with vehicle control, 60 mg/kg Compound (A) alone, 25 mg/kg Palbociclib alone, Compound (A) at 60 mg/kg in combination with 25 mg/kg palbociclib. Study endpoints included daily body weight, clinical observations, tumor volume.

MCF-7 tumor cells [3] = assay: Compound (A) in combination with palbociclib in MCF-7 xenograft model; type: in vivo, mouse; settings: 28 days; for tumor regression: Compound (A) 80/60 mg/kg, palbociclib 50 mg/kg, alone or in combination; for TGI: monotherapy: Compound (A) 80/60 mg/kg alone or palbociclib 50 mg/kg alone, FIG. 6
Experimental: The antitumor activity of Compound (A) in combination with a CDK4/6 inhibitor, palbociclib was evaluated in the MCF-7 xenograft model. Each mouse was inoculated subcutaneously on the right flank with the MCF-7 tumor cells (1.5×10^7) in 200 μL DMEM Matrigel mixture (1:1 ratio) without serum for the tumor development. In addition, estradiol benzoate injection was delivered by s.c. (40 ug/20 uL, twice weekly). When mean tumor size reached 202 mm^3, mice were randomized into 5 groups (10 animals/group) and treatment was started. Animals were dosed with vehicle, 80/60 mg/kg Compound (A) alone, 50 mg/kg palbociclib alone, 80 mg/kg Compound (A) in combination with 50 mg/kg Palbociclib by sequential dosing schedule (alternated per two weeks) or Compound (A) at 80/60 mg/kg in combination with palbociclib at 50 mg/kg. Treatment periods were 28 days. In FIG. 6, the top line (indicated with circles) is vehicle. […] Furthermore, Compound (A) in combination with palbociclib induced around 55% tumor regression.

[4] = test system: tamoxifen resistant ZR-75-1 tumor cells (ZR-75-1R); assay: Single agent efficacy in ZR-75-1 tamoxifen resistant tumor model; type: in vivo, mouse; settings: post 28 days treatment; Tamoxifen 100 mg/kg 5 days per week for three weeks; Compound (A) 80 mg/kg orally daily for 28 days; FIG. 4
Experimental: Compound (A)'s efficacy as a single agent was evaluated in ZR-75-1 tamoxifen resistant tumor model. The tamoxifen resistant ZR-75-1 tumor cells (ZR-75-1R) were maintained in vitro as monolayer culture in RPMI1640 Medium supplemented with 10% fetal bovine serum and 10 μM tamoxifen at 37° C. in an atmosphere of 5% CO2 incubator. Each mouse was then inoculated subcutaneously on the right flank with 1×10^7 ZR-75-1R tumor cells in 100 μL RPMI-1640 Matrigel mixture (1:1 ratio) without serum for the tumor development. In addition, estradiol benzoate injection was delivered by s.c. (40 ug/20 uL, twice weekly). Mice were then randomized into 3 groups when mean tumor size reached 191 mm^3 and treatment was started. Tamoxifen was dosed at 100 mg/kg 5 days per week for three weeks, Compound (A) was orally dosed at 80 mg/kg daily for 28 days. Study endpoints included daily body weight, clinical observations, tumor volume. In FIG. 4, the top line is Tamoxifen (100 mg/kg), the middle line is vehicle, and the bottom line is Compound (A) (80 mg/kg). […] No other gross clinical abnormalities were observed during the treatment period and animal body loss was manageable by giving animals dosing holiday.

[5] = test system: HER2+ JIMT-1 breast cancer cell line; assay: HER2+ JIMT-1 breast cancer xenograft, Study 1-Part 2 (high initial tumor burden); type: in vivo, NOD/SCID mice; settings: Day 14 of second part; tumors approximately 1000 mm^3 at start; Compound (A) 60 mg/kg p.o. qd; trastuzumab 10 mg/kg i.p. qw; vs. vehicle
[6] = test system: HER2+ JIMT-1 breast cancer cell line; assay: HER2+ JIMT-1 breast cancer xenograft, Study 1-Part 1; type: in vivo; settings: Compound (A) 60 mg/kg p.o. qd × 28, trastuzumab 10 mg/kg i.p. qw × 4
Experimental: The HER2+ JIMT-1 breast cancer cell line was used for tumor xenograft inoculations and subsequent treatment. […] Treatment was started when mean tumor size reached 204 mm^3. Mice were then randomized into 5 groups and treatments were administered to the tumor-bearing mice accordingly to the study design in Table 2.

HCC1428 tumor cells = assay: Activity in mice bearing human HCC1428 breast cancer xenograft tumors; type: in vivo
Experimental: The activity of Compound (A) as evaluated in mice bearing human HCC1428 breast cancer xenograft tumors. Each mouse was inoculated subcutaneously at the right flank with HCC1428 tumor cells (1×10^7) in 0.2 mL mixture of PBS and Matrigel (PBS: Matrigel=1:1) for tumor development, which has been subcutaneously implanted with 17beta-estradiol tablets (0.18 mg, 90-day release) two days before cell implantation. Treatments were started on day 21 after tumor inoculation when the average tumor size reached approximately 185 mm^3. The animals were assigned into two groups using an excel-based randomization software performing stratified randomization based upon their tumor volumes. Each group consisted of 10 tumor bearing mice. The vehicle control or Compound (A) at 80 mg/kg was administrated once daily to the mice by oral gavage for 28 days. In FIG. 5, the top line is vehicle, and the bottom line is Compound (A).

[7] = Compound (A) 80 mg/kg once daily p.o.
[8] = Compound (A) 80 mg/kg once daily p.o. 28 days

Row | SMILES | tumor growth / TGI (in words) [1] | inhibition of tumor growth (MCF-7 tumor cells [2]; Compound (A) 80 mg/kg once daily by oral gavage, single agent, FIG. 3) [%] | clinical observations (MCF-7 tumor cells [2]; [7]) | mean body weights (MCF-7 tumor cells [2]; [7]) | TGI (MCF-7 cells) [%] | tumor regression (MCF-7 tumor cells [3]) [%] | TGI (MCF-7 tumor cells [3]) | TGI (tumor growth inhibition) [4] [%] | TGI (%) on Day 14 [5] [%] | tumor growth inhibition (TGI) on Day 29 compared to respective vehicle controls ([6]; combination vs. either vehicle control) [%] | TGI (%) vs. Vehicle A ([6]; Day 29, Vehicle A p.o.) [%] | tumor growth inhibition (TGI) (HCC1428 tumor cells; Compound (A) 80 mg/kg once daily by oral gavage for 28 days, FIG. 5) [%] | body weight loss (HCC1428 tumor cells; [8]) | clinical observations (HCC1428 tumor cells; [8])
1 | C=CCn1c(=O)c2cnc(Nc3ccc(N4CCN(C)CC4)cc3)nc2n1-c1ccc2c(n1)[C@@](O)(CC)CC2 [Compound (A)] | reduced tumor growth | 132.6 | no adverse clinical observations | no significant impact on mean body weights | 48.6 | 32.7 | around 116% | 69.9 | 68.2 | 68 | 67.7 | 96.2 | no significant body weight loss | no adverse clinical observations
2 | CC/C(=C(\c1ccccc1)c1ccc(OCCN(C)C)cc1)c1ccccc1 [Tamoxifen, reference compound] |  |  |  |  |  |  |  | −47.9 |  |  |  |  |  | 
3 | CC(=O)c1c(C)c2cnc(Nc3ccc(N4CCNCC4)cn3)nc2n(C2CCCC2)c1=O [palbociclib, reference compound] |  |  |  |  | 14.2 | 39.1 | ~119% |  |  |  |  |  |  | 

— patent US20240325397A1, “USE OF COMBINATION THERAPY FOR TREATING CANCER” (Recurium IP Holdings, LLC, priority 2021, published 2024)
